Measured values published in US4450269A, “Mono-5-substituted-3-chloro-4H-1,2,6-thiadiazin-4-one antifungal agents” (FMC Corporation, priority 1980, dated 1984).
Where a name gives a salt, the structure may show the parent alone. Read-outs that look alike come from different tables or passages of the source.

Legend:
[1] = system: Pyricularia oryzae; format: cell-based; details: PO, 48 hours
[2] = system: Sclerotinia fructicola; test: Mycelial growth test; format: cell-based; details: SF; for Percent Fungus Growth Inhibition: 72 hours, hydrochloride; for inhibition at 5 ppm / inhibition at 10 ppm / inhibition at 20 ppm / inhibition at 40 ppm: Sclerotinia, 72 h, read-out: Percent Fungus Growth Inhibition
From the text: | SF = Sclerotinia fructicola

SMILES	Spore Germination Rating ([1]; 2.5 ppm, hydrochloride)	Percent Fungus Growth Inhibition ([2]; 5 ppm) [%]	Percent Fungus Growth Inhibition ([2]; 10 ppm) [%]	Percent Fungus Growth Inhibition ([2]; 20 ppm) [%]	Percent Fungus Growth Inhibition ([2]; 40 ppm) [%]	Spore Germination Rating ([1]; 1.0 ppm)	Spore Germination Rating ([1]; 2.5 ppm)	Spore Germination Rating ([1]; 10 ppm)	Spore Germination Rating ([1]; 40 ppm)	inhibition at 5 ppm ([2]; 5 ppm) [%]	inhibition at 10 ppm ([2]; 10 ppm) [%]	inhibition at 20 ppm ([2]; 20 ppm) [%]	inhibition at 40 ppm ([2]; 40 ppm) [%]
Nc1ccc(Oc2nsnc(Cl)c2=O)cc1 [Compound 27, 5-(4-aminophenoxy)-3-chloro-4H--1,2,6-thiadiazine-4-one hydrochloride]	0 (0-10)	0	21	28	86	–	–	–	–	–	–	–	–
CNC(=O)Nc1ccc(Oc2nsnc(Cl)c2=O)cc1 [Compound 28, 3-chloro-5-[4-(3-methylureido)-phenoxy]-4H--1,2,6-thiadiazin-4-one]	–	–	–	–	–	4 (80-100)	4 (80-100)	4 (80-100)	1 (10-40)	17	28	0	62
O=C(Nc1ccccc1)Nc1ccc(Oc2nsnc(Cl)c2=O)cc1 [Compound 29, 3-chloro-5-[4-(3-phenylureido)-phenoxy]-4H--1,2,6-thiadiazin-4-one]	–	–	–	–	–	4 (80-100)	4 (80-100)	4 (80-100)	2 (40-60)	28	31	0	7
O=c1c(Cl)nsnc1Oc1c(Cl)cc(Cl)cc1Cl [Compound 30, 3-chloro-5-(2,4,6-trichlorophenoxy)-4H--1,2,6-thiadiazin-4-one]	–	–	–	–	–	3 (60-80)	0 (0-10)	0 (0-10)	0 (0-10)	50	87	97	97
O=c1c(Cl)nsnc1Oc1c(Cl)c(Cl)c(Cl)c(Cl)c1Cl [Compound 31, 3-chloro-5-(pentachlorophenoxy)-4H--1,2,6-thiadiazine-4-one]	–	–	–	–	–	0 (0-10)	0 (0-10)	0 (0-10)	0 (0-10)	55	52	72	52
O=c1c(Cl)nsnc1Oc1cccc2ccccc12 [Compound 32, 3-chloro-5(1-naphthoxy)-4H-1,2,6-thiadiazin-4-one]	–	–	–	–	–	2 (40-60)	0 (0-10)	0 (0-10)	0 (0-10)	74	79	76	100
O=c1c(Cl)nsnc1Oc1ccccc1Br [Compound 34, 3-chloro-5-(2-bromophenoxy)-4H-1,2,6,-thiadiazin-4-one]	–	–	–	–	–	1 (10-40)	0 (0-10)	0 (0-10)	0 (0-10)	33	72	100	100
O=c1c(Cl)nsnc1Oc1ccc(O)cc1 [Compound 35, 3-chloro-5-(4-hydroxyphenoxy)-4H-1,2,6-thiadiazin-4-one]	–	–	–	–	–	2 (40-60)	0 (0-10)	0 (0-10)	0 (0-10)	8	27	69	100
O=C(Nc1ccccc1)Oc1ccc(Oc2nsnc(Cl)c2=O)cc1 [Compound 37, 3-chloro-5-[4-(phenylaminocarbonyloxy)phenoxy]-4H-1,2,6,-thiadiazin-4-one]	–	–	–	–	–	4 (80-100)	3 (60-80)	0 (0-10)	2 (40-60)	30	59	56	59
O=C(OCc1ccccc1)Oc1ccc(Oc2nsnc(Cl)c2=O)cc1 [Compound 38, 3-chloro-5-[4-(phenylmethoxycarbonyloxy)phenoxyl]-4H-1,2,6-thiadiazin-4-one]	–	–	–	–	–	4 (80-100)	3 (60-80)	2 (40-60)	2 (40-60)	0	0	0	8
C[S+]([O-])c1ccc(Oc2nsnc(Cl)c2=O)cc1 (centres unmarked) [Compound 40, 3-chloro-5-[(4-methylsulfinyl)phenoxy]-4H-1,2,6,-thiadiazin-4-one]	–	–	–	–	–	4 (80-100)	3 (60-80)	4 (80-100)	1 (10-40)	4	59	89	100
CC(=O)Nc1cccc(Oc2nsnc(Cl)c2=O)c1 [Compound 42, 3-[(3-N--acetylamino)-phenoxy]-5-chloro-4H--1,2,6-thiadiazin-4-one]	–	–	–	–	–	4 (80-100)	4 (80-100)	3 (60-80)	0 (0-10)	24	35	56	100
CC(=O)Nc1ccccc1Oc1nsnc(Cl)c1=O [Compound 43, 3-[(2-acetylamino)-phenoxy]-5-chloro-4H--1,2,6-thiadiazin-4-one]	–	–	–	–	–	4 (80-100)	4 (80-100)	4 (80-100)	1 (10-40)	0	0	17	22
O=c1c(Cl)nsnc1Oc1cccc(C(F)(F)F)c1 [Compound 44, 3-chloro-5-[(3-trifluoromethyl)phenoxy]-4H--1,2,6-thiadiazin-4-one]	–	–	–	–	–	1 (10-40)	0 (0-10)	0 (0-10)	0 (0-10)	76	100	100	100
O=C(O)Cc1ccccc1Oc1nsnc(Cl)c1=O [Compound 45, 3-(2-carboxymethylphenoxy)-5-chloro-4H--1,2,6-thiadiazin-4-one]	–	–	–	–	–	4 (80-100)	4 (80-100)	4 (80-100)	1 (10-40)	9	3	38	59
N#CCc1ccc(Oc2nsnc(Cl)c2=O)cc1 [Compound 46, 3-chloro-5-[(4-cyanomethyl)-phenoxy]4H--1,2,6-thiadiazin-4-one]	–	–	–	–	–	0 (0-10)	0 (0-10)	0 (0-10)	0 (0-10)	19	76	81	100
CC(=O)c1ccc(Oc2nsnc(Cl)c2=O)cc1 [Compound 47, 3-(4-acetylphenoxy)-5-chloro-4H--1,2,6-thiadiazin-4-one]	–	–	–	–	–	1 (10-40)	0 (0-10)	0 (0-10)	0 (0-10)	82	82	100	100
CC(=O)c1cccc(Oc2nsnc(Cl)c2=O)c1 [Compound 48, 3-(3-acetylphenoxy)-5-chloro-4H--1,2,6-thiadiazin-4-one]	–	–	–	–	–	3 (60-80)	1 (10-40)	0 (0-10)	0 (0-10)	82	88	94	100
CC(=O)c1ccccc1Oc1nsnc(Cl)c1=O [Compound 49, 3-(2-acetylphenoxy)-5-chloro-4H--1,2,6-thiadiazin-4-one]	–	–	–	–	–	2 (40-60)	1 (10-40)	0 (0-10)	0 (0-10)	14	33	75	100
